Experimental findings from patent US20240034717A1, “NOVEL POTASSIUM CHANNEL INHIBITORS” (Saniona A/S, priority 2020, published 2024) are described below.

A short description of one data set: physchem. Conditions: for solubility at 16 h: 25 °C, pH 7.4, aqueous buffer, kinetic from dmso stock; for Measured Solubility in pH 7.4 phosphate buffer (mg/ml) / Measured Solubility in pH 7.4 phosphate buffer (μM): 50 mM potassium phosphate buffer pH 7.40, 16 hr at ~25° C., incubation concentration 1600 μM. How it is done: 2.79 g of K2HPO4 and 0.54 g of KH2PO4 was dissolved in 390 mL of milliQ water. pH was adjusted to 7.4 using 1N HCl/1N NaOH and final volume was made up to 400 mL with milliQ water.
In case of compounds not soluble/less quantity submission, 40/20/10Mm stocks were prepared and used for experiment.
Assay Procedure: • 245 μL of 50 mM phosphate buffer then 5 μL each of test compound/standards (80 mM) in their respective positions was added to the 1.1 mL 96 well plate. • DMSO Controls was prepared by taking 245 μL of 100% DMSO then 5 μL each of test compound in their respective positions and added to the 1.1 mL 96 well plate • Plate was incubated with mixing at 1600 RPM for 16 hours at room temperature (˜23 MC). • After incubation, samples were filtered using Millipore plates. • Filtrates were analysed by HPLC-UV.
Solubility is calculated using the following formula: […]

The target of data set [1] is erythrocyte KCa3.1 channels (Homo sapiens (Human), UniProt O15554). As to the kind of experiment: Erythrocyte KCa3.1 assay. Type of data set: cell-based. The following applies: human erythrocytes, A23187-activated KCa3.1; read-out: RBC K (in vitro) Human IC50 (μM) Potency category. How it is done: Human blood was drawn from healthy human volunteers in a standard heparinized blood sampling vial (Vacutainer, Li/heparin, ED Bioscience, Plymouth, UK). The erythrocytes were packed by centrifugation, and the plasma and buffy coat were removed by aspiration. Erythrocytes were washed three times in the experimental salt solution and then stored at 0° C. until use. Blood samples from NMRI mice or from Wistar rats were treated similarly. The methodological principle is outlined in Macey et al. (1978) and further described in Strøbaek et al. (2013). Activation of the erythrocyte KCa3.1 channels were obtained by addition of the Ca^2+ ionophore A23187, which causes synchronized hyperpolarization, which is reported as a CCCP-mediated shift in the unbuffered extracellular pH of the erythrocyte suspension. Standard procedure: 3 mL unbuffered experimental salt solution (in mM: 2 KCl, 154 NaCl, 0.05 CaCl2) was heated to 37° C. with stirring. Packed erythrocytes were added (50 μL, final cytocrit 1.5%), and the extracellular pH (pHo) followed with a glass/calomel (pHG200-8/REF200, Radiometer, Denmark) electrode pair. CCCP (3 μL, final concentration 20 μM) was added followed by varying concentrations of test compounds (DMSO concentration constant). After pH stabilization at ˜7.2, A23187 (3 μL, final concentration 0.33 μM) was added to initiate the experiment. After the peak hyperpolarization was attained, the intracellular pH (pHi constant during the experiment) was found by haemolysing the erythrocytes via addition of 100 μL of Triton-X100.
The erythrocyte membrane potential, Vm, was calculated according to: […]
and the fractional remaining Ca^2+-activated K^+-conductance at the concentration C of blocker, fGK(C), was calculated from
where the K^+ equilibrium potential EK=−107 mV, the Cl^− equilibrium potential ECl=−12 mV and the Vm(0) and Vm(C) are the peak hyperpolarizations in the control and in the presence of a concentration of C of blocker respectively.
IC50 values for compounds were calculated from a plot of fGK(C) versus C by a fit to the Hill equation, using a custom program written in the IGOR-Pro software (WaveMetrics, Lake Oswego, OR, USA). All IC50-values are reported in μM.

Values joined by “and” are separate entries in the source; they are usually repeats but may differ in a detail not shown here. Identical values can stand only once. Some results are limits rather than exact numbers.

The solubility is the dissolved amount per volume that the medium holds. A high value points to a readily soluble substance. In general, IC50 refers to the point on the concentration scale where inhibition reaches its midpoint. In the case of `COC(=O)N(CC(C)(C)N)C1(c2ccc(F)c(C(F)(F)F)c2)CC1` [Methyl (2-amino-2-methylpropyl)(1-(4-fluoro-3-(trifluoromethyl)phenyl)cyclopropyl)carbamate], the solubility at 16 h in the data set “physchem” was 556 µg/mL and 1600 µM. Moreover, in data set [1], the IC50 is < 0.3 µM.
As for `COC(=O)N(CC(C)(C)N)C1(c2cc(C(F)(F)F)c(F)cn2)CC1` [Methyl (2-amino-2-methylpropyl)(1-(5-fluoro-4-(trifluoromethyl)pyridin-2-yl)cyclopropyl) carbamate], in the data set “physchem”, the “Measured Solubility in pH 7.4 phosphate buffer (mg/ml)” value (from here on “Measured Solubility … (mg/ml)”) is on record as 0.5636 mg/ml and the “Measured Solubility in pH 7.4 phosphate buffer (μM)” value (“Measured Solubility … (μM)” below) is reported as 1500 μM. In addition, the IC50 in data set [1] was < 1 µM.
Regarding `COC(=O)N(CC1(N)CC1)C1(c2ccc(F)c(C(F)(F)F)c2)CC1` [Methyl ((1-aminocyclopropyl)methyl)(1-(4-fluoro-3-(trifluoromethyl)phenyl)cyclopropyl) carbamate], in the data set “physchem”, the “Measured Solubility … (mg/ml)” value is on record as 0.5599 mg/ml and the “Measured Solubility … (μM)” value is on record as 1600 μM. Besides, the IC50 in data set [1] is < 0.3 µM.
Take `COC(=O)N(C[C@H]1CCCN1)C1(c2ccc(F)c(OC(F)(F)F)c2)CC1` [Methyl (R)-(1-(4-fluoro-3-(trifluoromethoxy)phenyl)cyclopropyl)(pyrrolidin-2-ylmethyl)carbamate]: the solubility at 16 h in the data set “physchem” was 677 µg/mL and 1600 µM. Also, the IC50 in data set [1] was < 1 µM.
Turning to `COC(=O)N(C[C@H]1CCCN1C)C1(c2ccc(F)c(C(F)(F)F)c2)CC1` [Methyl (R)-(1-(4-fluoro-3-(trifluoromethyl)phenyl)cyclopropyl)((1-methylpyrrolidin-2-yl)methyl)carbamate], the solubility at 16 h in the data set “physchem” is 558 µg/mL and 1500 µM. Moreover, the IC50 in data set [1] was < 0.3 µM.
Turning to `COC(=O)N(C[C@@]1(C)CCCN1)C1(c2ccc(F)c(C(F)(F)F)c2)CC1` [Methyl (R)-(1-(4-fluoro-3-(trifluoromethyl)phenyl)cyclopropyl)((2-methylpyrrolidin-2-yl)methyl)carbamate], in the data set “physchem”, the solubility at 16 h was 585 µg/mL and 1400 µM. Further, the half-inhibitory concentration (IC50) in data set [1] is < 0.3 µM.
In the case of `COC(=O)N(C[C@H]1CCCN1)C1(c2ccc(F)c(C(F)(F)F)c2)CC1` [Methyl (R)-(1-(4-fluoro-3-(trifluoromethyl)phenyl)cyclopropyl)(pyrrolidin-2-ylmethyl)carbamate], the solubility at 16 h in the data set “physchem” is 667 µg/mL and 1700 µM. Also, the IC50 in data set [1] was < 0.3 µM.
`COC(=O)N(C[C@@H]1CCCN1)C1(c2ccc(F)c(OC(F)(F)F)c2)CC1` [Methyl (S)-(1-(4-fluoro-3-(trifluoromethoxy)phenyl)cyclopropyl)(pyrrolidin-2-ylmethyl)carbamate]: in “physchem”, the solubility at 16 h was 674 µg/mL and 1600 µM. Also, the IC50 in data set [1] was < 0.3 µM.
`COC(=O)N(C[C@@H]1CCCN1C)C1(c2ccc(F)c(C(F)(F)F)c2)CC1` [Methyl (S)-(1-(4-fluoro-3-(trifluoromethyl)phenyl)cyclopropyl) ((1-methylpyrrolidin-2-yl)methyl) carbamate]: in “physchem”, the “Measured Solubility … (mg/ml)” value was found to be 0.5918 mg/ml and the “Measured Solubility … (μM)” value came to 1600 μM. Further, the IC50 in data set [1] is < 0.3 µM.
On to `COC(=O)N(C[C@]1(C)CCCN1)C1(c2ccc(F)c(C(F)(F)F)c2)CC1` [Methyl (S)-(1-(4-fluoro-3-(trifluoromethyl)phenyl)cyclopropyl)((2-methylpyrrolidin-2-yl)methyl)carbamate], for which, in the data set “physchem”, the solubility at 16 h is 575 µg/mL and 1400 µM. In addition, in data set [1], the IC50 is < 0.3 µM.
On to `COC(=O)N(C[C@H]1COCCN1C)C1(c2ccc(F)c(C(F)(F)F)c2)CC1` [Methyl (S)-(1-(4-fluoro-3-(trifluoromethyl)phenyl)cyclopropyl)((4-methylmorpholin-3-yl)methyl)carbamate], for which, in “physchem”, the solubility at 16 h was 600 µg/mL and 1500 µM. Also, the concentration for half-maximal inhibition (IC50) in data set [1] was < 0.3 µM.
With `COC(=O)N(C[C@H]1COCCN1)C1(c2ccc(F)c(C(F)(F)F)c2)CC1` [Methyl (S)-(1-(4-fluoro-3-(trifluoromethyl)phenyl)cyclopropyl)(morpholin-3-ylmethyl) carbamate], in the data set “physchem”, the “Measured Solubility … (mg/ml)” value worked out at 0.6118 mg/ml and the “Measured Solubility … (μM)” value is 1500 μM. In addition, the half-maximal inhibitory concentration (IC50) in data set [1] is < 1 µM.
Regarding `COC(=O)N(C[C@@H]1CCCN1)C1(c2ccc(F)c(C(F)(F)F)c2)CC1` [Methyl (S)-(1-(4-fluoro-3-(trifluoromethyl)phenyl)cyclopropyl)(pyrrolidin-2-ylmethyl)carbamate], the solubility at 16 h in “physchem” was 653 µg/mL and 1600 µM. Further, the IC50 in data set [1] was < 0.3 µM.
On to `COC(=O)N(C[C@@H]1CCN1)C1(c2ccc(F)c(C(F)(F)F)c2)CC1` [Methyl (S)-(azetidin-2-ylmethyl)(1-(4-fluoro-3-(trifluoromethyl)phenyl)-cyclopropyl)carbamate], for which, in “physchem”, the solubility at 16 h was 591 µg/mL and 1700 µM. Further, the IC50 in data set [1] was < 1 µM.
Turning to `COC(=O)N(CC1CCN1)C1(c2ccc(F)c(OC(F)(F)F)c2)CC1` (stereo not drawn) [Methyl (azetidin-2-ylmethyl)(1-(4-fluoro-3-(trifluoromethoxy)phenyl)cyclopropyl)carbamate], the solubility at 16 h in the data set “physchem” was 558 µg/mL and 1500 µM. Moreover, the half-maximal inhibitory concentration (IC50) in data set [1] was < 0.3 µM.
Take `COC(=O)N(CC1CCN1)C1(c2ccc(F)c(C(F)(F)F)c2)CC1` (stereo not drawn) [Methyl (azetidin-2-ylmethyl)(1-(4-fluoro-3-(trifluoromethyl)phenyl)cyclopropyl)carbamate]: the solubility at 16 h in “physchem” was 687 µg/mL and 1500 µM. Also, the IC50 in data set [1] was < 0.3 µM.
Consider `COC(=O)N(CCN(C)C)C1(c2ccc(F)c(C(F)(F)F)c2)CC1` [Methyl N-(2-(dimethylamino)ethyl)-N-(1-(4-fluoro-3-(trifluoromethyl)phenyl)cyclopropyl) carbamate], for which, in the data set “physchem”, the “Measured Solubility … (mg/ml)” value stood at 0.5409 mg/ml and the “Measured Solubility … (μM)” value was 1600 μM. In addition, in data set [1], the IC50 is < 1 µM.
Turning to `CC(C)(N)CNC1(c2ccc(F)c(C(F)(F)F)c2)CC1` [N1-(1-(4-fluoro-3-(trifluoromethyl)phenyl)cyclopropyl)-2-methylpropane-1,2-diamine], in “physchem”, the solubility at 16 h was 482 µg/mL and 1700 µM. Also, in data set [1], the 50% inhibitory concentration (IC50) was < 0.3 µM.
`CC(C)(N)CN(CC1CC1)C1(c2ccc(F)c(C(F)(F)F)c2)CC1` [N1-(cyclopropylmethyl)-N1-(1-(4-fluoro-3-(trifluoromethyl)phenyl)cyclopropyl)-2-methyl propane-1,2-diamine]: in the data set “physchem”, the solubility at 16 h was 511 µg/mL and 1500 µM. Moreover, the IC50 in data set [1] was < 0.3 µM.
For `CC(C)(N)CN(C1CC1)C1(c2cccc(C(F)(F)F)c2)CC1` [N1-cyclopropyl-2-methyl-N1-(1-(3-(trifluoromethyl)phenyl)cyclopropyl)propane-1,2-diamine], in “physchem”, the solubility at 16 h was 481 µg/mL and 1400 µM. Moreover, in data set [1], the concentration for half-maximal inhibition (IC50) is < 0.3 µM.
Turning to `CC(C)(N)CN(C(=O)C1CC1)C1(c2ccc(F)c(C(F)(F)F)c2)CC1` [N-(2-amino-2-methylpropyl)-N-(1-(4-fluoro-3-(trifluoromethyl)phenyl)cyclopropyl)cyclopropanecarboxamide], the solubility at 16 h in “physchem” was 582 µg/mL and 1200 µM. For the same compound, in data set [1], the IC50 was < 1 µM.
Regarding `CC(C)(N)CN(C1(c2ccc(F)c(C(F)(F)F)c2)CC1)S(C)(=O)=O` [N-(2-amino-2-methylpropyl)-N-(1-(4-fluoro-3-(trifluoromethyl)phenyl)cyclopropyl)methanesulfonamide], the solubility at 16 h in “physchem” is 565 µg/mL and 1500 µM. Also, the concentration for half-maximal inhibition (IC50) in data set [1] was < 0.3 µM.
Regarding `NC1(CNC2(c3ccc(F)c(C(F)(F)F)c3)CC2)CC1` [N-((1-aminocyclopropyl)methyl)-1-(4-fluoro-3-(trifluoromethyl)phenyl)cyclopropan-1-amine], the solubility at 16 h in “physchem” was 464 µg/mL and 1400 µM. The IC50 in data set [1] is < 0.3 µM.
